Experimental findings from patent US20260327204A1, “DEGRADERS OF CYCLIN-DEPENDENT KINASE 12/13, COMPOSITIONS, AND USES THEREOF” (ZHEJIANG UNIVERSITY, priority 2023, published 2026) are described below.

Read-outs that look alike come from different tables or passages of the source. Where only a bound is given, the exact number is not on record here.

Data set [1] concerns tumor cells MDA-MB-231, MV4-11, and KASUMI-1 and normal cells L-02 and HK-2. Put plainly: Survival of tumor and normal cells (CCK8 / SRB). Format: cell-based. Conditions: 72 h, concentration gradient, FIG. 10. The protocol: The proliferation inhibition of compounds on leukemia cell lines MV4-11 and KASUMI-1 was determined using the CCK8 assay, while the inhibition on solid tumor cell lines MDA-MB-231 was determined using the Sulforhodamine B (SRB) assay.
CCK8 Assay: First, MV4-11 and KASUMI-1 cells were seeded in a 96-well plate at a density of 5,000 cells per well. Then, a concentration gradient (0.03 μM-10 μM) of the compounds was administered for 72 h, with DMSO solvent serving as the negative control. At the end of the treatment, 10 μL of CCK8 reagent was added to each well. The plate was incubated for 4 hours at 37 °C in the dark. After mixing, the absorbance value was measured at 450 nm.
SRB Assay: First, MDA-MB-231, L-02, and HK-2 cells were seeded in a 96-well plate at a density of 3,000 cells per well. After 8-12 h of cell adhesion, a concentration gradient (62.5 nM-10 μM) of the compounds was administered for 72 h, with DMSO solvent serving as the negative control. At the end of the treatment, the cells were washed once with 70 μL of PBS, then fixed with 70 μL of 10% trichloroacetic acid at 4 °C for 1 h. After rinsing with tap water and drying in an oven, 70 μL of SRB staining solution was added to each well for 20 min at room temperature. […] Finally, 150 μL of 10 mM Tris-base dissolving solution was added, and the plate was shaken for 15 min before the absorbance value was measured at 540 nm.

For data set [2], the system named is CCNK. As to the kind of experiment: Reversal of CCNK degradation by proteasome inhibitor MG132, Western blot. The following applies: MDA-MB-231, 24 h treatment, MG132 added 12 h before sample collection. Format: cell-based. Here is the method:
(§1) • Cell lines: HCT-116, Jurkat, or MDA-MB-231 • Culture medium: DMEM/RIPM-1640+10% Hyclone serum • Compound dissolution method: The compounds (small molecule conjugates as shown in Formulae 101-147, MG132) were dissolved in DMSO to prepare a 50 mM stock solution and then diluted to the corresponding concentrations.
(§2) (3) Compound treatment: The 50 mM compound stock solution was diluted with cell culture medium to a final concentration of 0.01 μM-3 μM. Cells were incubated in a 37 °C incubator with 5% CO2 for 3 h-48 h. The DMSO group served as the negative control.
In the figures, CDK12, CDK13, and CCNK are the target proteins under study, and β-Actin and GAPDH are the internal reference proteins. Internal reference proteins are used to indicate the total protein amount in each experimental group for quantitative analysis.

Data set [3] addresses T1, hERG channel (Homo sapiens, UniProt Q12809).
T1 construct: manual patch clamp of tail current
As to the kind of experiment: Manual patch-clamp of hERG channel currents stably expressed in HEK293 cells. The class given is cell-based. Conditions: 0.3 μM-30 μM, HEK293, room temperature. Here is the method:
III. Manual Patch-Clamp Detection of the Effect of Compounds on hERG Channel Currents Stably Expressed in HEK293 Cells
A 30 mM stock solution of compound 147 was prepared in DMSO. The stock solution was serially diluted with DMSO to prepare secondary stock solutions of 10 mM, 3 mM, 1 mM, and 0.3 mM. 10 μL of the secondary stock solution was diluted in 10 mL of extracellular solution to prepare final concentrations of 30 μM, […], 3 μM, 1 μM, and 0.3 μM for electrophysiological detection. A 10 mM stock solution of the positive control, cisapride, was prepared in DMSO. The stock solution was serially diluted with DMSO to prepare secondary stock solutions of 1000 μM, 100 μM, 10 μM, 1 μM, and 0.1 μM. 10 μL of the secondary stock solution was diluted in 10 mL of extracellular solution to prepare final concentrations of 1000 nM, 100 nM, 10 nM, 1 nM, and 0.1 nM for electrophysiological detection. […]
d. […] The current was recorded once every 15 s.
e. The hERG potassium channel current was recorded at room temperature before drug addition. […]
The original data hERG tail current peak values were extracted from the PatchMaster software. The current inhibition rate was calculated using the following formula:
The mean and standard error were calculated for each concentration. […]

Data set [4] in a line: In vivo pharmacokinetics in mice. The following applies: mouse, plasma, ip, 30 mg/kg, intraperitoneal.
Data set [5] deals with T2, CDK12 (Homo sapiens, UniProt Q9NYV4). As to the kind of experiment: Reversal of CDK12 degradation by proteasome inhibitor MG132, Western blot. Format: cell-based. Further details: endogenous in cells. The following applies: MDA-MB-231, 24 h treatment, MG132 added 12 h before sample collection. Here is the method: as §1, §2
T2 sequence (Q9NYV4 whole entry): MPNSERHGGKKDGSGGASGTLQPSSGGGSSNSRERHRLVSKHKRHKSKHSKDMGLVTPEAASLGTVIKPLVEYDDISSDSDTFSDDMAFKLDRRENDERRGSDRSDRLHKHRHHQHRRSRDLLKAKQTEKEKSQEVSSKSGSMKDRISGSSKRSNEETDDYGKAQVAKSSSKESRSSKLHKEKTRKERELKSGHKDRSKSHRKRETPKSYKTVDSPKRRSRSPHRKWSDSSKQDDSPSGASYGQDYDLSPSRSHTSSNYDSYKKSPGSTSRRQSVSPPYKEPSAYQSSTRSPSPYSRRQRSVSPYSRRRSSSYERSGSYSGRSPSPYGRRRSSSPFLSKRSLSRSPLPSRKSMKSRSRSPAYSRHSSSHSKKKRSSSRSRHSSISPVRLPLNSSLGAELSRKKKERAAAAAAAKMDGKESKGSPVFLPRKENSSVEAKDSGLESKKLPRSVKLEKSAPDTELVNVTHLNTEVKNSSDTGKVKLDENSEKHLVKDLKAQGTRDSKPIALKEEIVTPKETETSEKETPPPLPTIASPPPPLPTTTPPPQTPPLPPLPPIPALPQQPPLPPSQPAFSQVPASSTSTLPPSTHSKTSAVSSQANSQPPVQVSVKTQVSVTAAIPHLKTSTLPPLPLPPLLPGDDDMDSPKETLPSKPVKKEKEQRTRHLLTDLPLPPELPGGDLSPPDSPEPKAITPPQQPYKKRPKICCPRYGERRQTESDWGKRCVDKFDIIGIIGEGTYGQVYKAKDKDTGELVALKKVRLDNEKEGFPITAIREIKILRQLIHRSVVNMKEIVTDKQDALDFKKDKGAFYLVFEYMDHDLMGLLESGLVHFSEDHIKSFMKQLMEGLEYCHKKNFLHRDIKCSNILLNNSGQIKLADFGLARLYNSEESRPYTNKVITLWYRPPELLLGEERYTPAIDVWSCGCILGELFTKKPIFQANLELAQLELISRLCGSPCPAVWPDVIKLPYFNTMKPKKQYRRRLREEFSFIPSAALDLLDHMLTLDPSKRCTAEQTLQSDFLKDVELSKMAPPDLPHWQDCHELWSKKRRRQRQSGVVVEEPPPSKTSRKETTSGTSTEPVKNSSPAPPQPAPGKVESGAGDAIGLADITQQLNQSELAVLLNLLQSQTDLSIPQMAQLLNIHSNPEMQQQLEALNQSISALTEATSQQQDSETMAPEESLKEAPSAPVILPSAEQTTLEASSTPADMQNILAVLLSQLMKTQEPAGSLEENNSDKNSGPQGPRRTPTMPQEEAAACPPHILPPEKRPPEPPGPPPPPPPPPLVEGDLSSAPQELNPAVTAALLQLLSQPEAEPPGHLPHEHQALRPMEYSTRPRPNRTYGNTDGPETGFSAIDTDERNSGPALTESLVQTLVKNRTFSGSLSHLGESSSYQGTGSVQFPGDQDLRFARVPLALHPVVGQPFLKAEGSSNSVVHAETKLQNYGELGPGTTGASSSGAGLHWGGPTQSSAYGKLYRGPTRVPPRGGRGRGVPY
T2 sequence (O75909 whole entry partner): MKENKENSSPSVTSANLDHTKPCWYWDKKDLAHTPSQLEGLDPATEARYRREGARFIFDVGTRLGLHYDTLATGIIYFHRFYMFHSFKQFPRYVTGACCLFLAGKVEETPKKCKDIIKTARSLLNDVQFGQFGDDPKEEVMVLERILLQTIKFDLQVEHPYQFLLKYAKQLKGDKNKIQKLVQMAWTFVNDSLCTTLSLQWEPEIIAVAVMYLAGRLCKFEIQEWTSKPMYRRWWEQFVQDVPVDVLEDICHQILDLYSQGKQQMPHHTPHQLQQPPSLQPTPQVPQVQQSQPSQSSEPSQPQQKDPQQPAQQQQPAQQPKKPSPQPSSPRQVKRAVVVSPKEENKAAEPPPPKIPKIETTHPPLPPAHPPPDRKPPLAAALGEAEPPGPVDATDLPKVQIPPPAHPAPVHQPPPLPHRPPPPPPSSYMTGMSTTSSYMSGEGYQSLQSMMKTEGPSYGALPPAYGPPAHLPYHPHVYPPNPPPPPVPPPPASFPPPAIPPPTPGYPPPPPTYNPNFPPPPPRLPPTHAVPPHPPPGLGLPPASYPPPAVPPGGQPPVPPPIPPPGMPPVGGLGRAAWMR
Background: In western blotting, separated proteins are transferred to a membrane and probed.

Data set [6] addresses T3, CDK13 (Homo sapiens, UniProt Q14004). Put plainly: Reversal of CDK13 degradation by proteasome inhibitor MG132, Western blot. The class given is cell-based. Details: endogenous in cells. The following applies: MDA-MB-231, 24 h treatment, MG132 added 12 h before sample collection. Here is the method: as §1, §2
Data set [7] addresses T2, CDK12. As to the kind of experiment: Western blot degradation of CDK12 (Example 3). Format: cell-based. Details: degradation of CDK12/13 protein in leukemia cells KASUMI-1, MV4-11, and Jurkat; endogenous in cells.
The target of data set [8] is T3, CDK13. As to the kind of experiment: Western blot degradation of CDK13 (Example 3). The class given is cell-based. Further details: degradation of CDK12/13 protein in leukemia cells KASUMI-1, MV4-11, and Jurkat; endogenous in cells.

T3 sequence (Q14004 whole entry): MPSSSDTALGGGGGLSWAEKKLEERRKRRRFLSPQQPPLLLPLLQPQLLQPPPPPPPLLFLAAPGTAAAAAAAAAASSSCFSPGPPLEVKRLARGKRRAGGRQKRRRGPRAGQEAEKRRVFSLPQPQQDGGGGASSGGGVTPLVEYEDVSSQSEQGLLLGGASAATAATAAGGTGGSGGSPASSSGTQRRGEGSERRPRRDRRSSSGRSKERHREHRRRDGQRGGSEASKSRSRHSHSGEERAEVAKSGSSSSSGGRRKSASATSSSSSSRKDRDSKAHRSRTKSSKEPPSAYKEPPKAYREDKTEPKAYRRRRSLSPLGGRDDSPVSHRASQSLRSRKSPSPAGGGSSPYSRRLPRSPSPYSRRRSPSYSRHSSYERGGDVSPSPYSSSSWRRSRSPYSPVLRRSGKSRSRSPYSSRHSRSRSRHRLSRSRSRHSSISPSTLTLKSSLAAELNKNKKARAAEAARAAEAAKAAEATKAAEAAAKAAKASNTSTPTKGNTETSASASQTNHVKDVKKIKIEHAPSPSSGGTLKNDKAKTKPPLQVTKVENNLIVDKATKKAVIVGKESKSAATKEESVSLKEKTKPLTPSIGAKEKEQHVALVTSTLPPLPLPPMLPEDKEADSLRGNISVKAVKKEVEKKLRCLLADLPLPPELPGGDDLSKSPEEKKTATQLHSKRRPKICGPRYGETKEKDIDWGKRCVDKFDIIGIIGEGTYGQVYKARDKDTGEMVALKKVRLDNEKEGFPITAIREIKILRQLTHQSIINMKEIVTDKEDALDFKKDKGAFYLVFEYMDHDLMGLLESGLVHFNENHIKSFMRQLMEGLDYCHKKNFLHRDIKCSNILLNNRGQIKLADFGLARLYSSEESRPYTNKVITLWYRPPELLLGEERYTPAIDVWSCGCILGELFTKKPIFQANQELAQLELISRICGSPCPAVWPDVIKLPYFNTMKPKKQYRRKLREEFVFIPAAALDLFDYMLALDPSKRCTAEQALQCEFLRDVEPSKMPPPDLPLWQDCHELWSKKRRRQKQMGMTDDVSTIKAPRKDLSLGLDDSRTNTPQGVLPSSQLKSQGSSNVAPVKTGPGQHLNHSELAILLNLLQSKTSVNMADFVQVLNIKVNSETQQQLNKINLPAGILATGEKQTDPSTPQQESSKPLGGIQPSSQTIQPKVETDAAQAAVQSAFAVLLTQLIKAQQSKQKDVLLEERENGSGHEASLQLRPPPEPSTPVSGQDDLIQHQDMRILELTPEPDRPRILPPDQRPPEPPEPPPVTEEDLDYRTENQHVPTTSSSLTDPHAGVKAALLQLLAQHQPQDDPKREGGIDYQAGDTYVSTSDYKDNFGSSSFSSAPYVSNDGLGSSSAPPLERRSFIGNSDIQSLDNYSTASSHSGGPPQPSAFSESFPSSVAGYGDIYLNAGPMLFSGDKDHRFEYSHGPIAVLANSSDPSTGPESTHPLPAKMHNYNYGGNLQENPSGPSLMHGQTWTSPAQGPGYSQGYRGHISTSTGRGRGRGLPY
T3 sequence (O75909 whole entry partner): as the sequence (O75909 whole entry partner) above
T1 sequence (Q12809 whole entry): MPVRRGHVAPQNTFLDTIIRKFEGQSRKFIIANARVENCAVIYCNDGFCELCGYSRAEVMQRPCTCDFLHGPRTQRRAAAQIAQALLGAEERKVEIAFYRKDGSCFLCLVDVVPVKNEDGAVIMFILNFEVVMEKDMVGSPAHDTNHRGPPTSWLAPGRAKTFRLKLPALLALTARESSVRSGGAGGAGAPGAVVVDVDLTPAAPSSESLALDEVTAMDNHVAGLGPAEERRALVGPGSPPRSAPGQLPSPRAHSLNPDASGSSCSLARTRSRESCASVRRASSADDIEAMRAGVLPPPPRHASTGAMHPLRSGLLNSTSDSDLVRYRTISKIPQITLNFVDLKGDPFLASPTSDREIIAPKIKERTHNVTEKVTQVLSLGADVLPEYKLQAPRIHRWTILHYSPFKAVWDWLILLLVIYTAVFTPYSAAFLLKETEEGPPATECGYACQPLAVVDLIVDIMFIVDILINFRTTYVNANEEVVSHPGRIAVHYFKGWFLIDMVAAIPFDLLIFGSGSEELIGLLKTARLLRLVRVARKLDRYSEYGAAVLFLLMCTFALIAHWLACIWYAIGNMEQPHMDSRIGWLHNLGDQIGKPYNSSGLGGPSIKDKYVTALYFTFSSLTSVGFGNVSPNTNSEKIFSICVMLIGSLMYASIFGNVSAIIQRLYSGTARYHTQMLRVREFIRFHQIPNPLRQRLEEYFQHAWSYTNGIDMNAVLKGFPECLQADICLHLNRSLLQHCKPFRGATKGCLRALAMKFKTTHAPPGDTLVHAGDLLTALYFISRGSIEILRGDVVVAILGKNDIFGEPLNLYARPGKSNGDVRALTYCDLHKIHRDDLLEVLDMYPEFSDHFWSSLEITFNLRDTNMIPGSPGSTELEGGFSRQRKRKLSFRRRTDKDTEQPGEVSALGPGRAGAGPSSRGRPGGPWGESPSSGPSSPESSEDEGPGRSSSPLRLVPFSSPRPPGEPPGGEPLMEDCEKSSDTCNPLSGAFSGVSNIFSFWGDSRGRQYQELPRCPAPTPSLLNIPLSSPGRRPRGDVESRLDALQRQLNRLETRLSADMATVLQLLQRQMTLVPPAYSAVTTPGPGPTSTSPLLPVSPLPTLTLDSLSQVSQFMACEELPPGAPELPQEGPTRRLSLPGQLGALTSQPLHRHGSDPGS

`CN(C)C/C=C/C(=O)Nc1ccc(C(=O)N2CCC[C@@H](Nc3ncc(Cl)c(-c4c[nH]c5ccccc45)n3)C2)cc1` [THZ-531]: the “proliferation inhibitory activity on normal and tumor cells” value in data set [1] was “indiscriminate proliferation inhibitory activity on both normal and tumor cells”.
What is called half-life is how long it takes for the measured level to halve. For the compound `CC(=O)N(c1ccc(-c2ccc(N3CCN(CC(=O)N[C@H](C(=O)N4C[C@H](O)C[C@H]4C(=O)N[C@@H](C)c4ccc(-c5scnc5C)cc4)C(C)(C)C)CC3)nc2)cc1)[C@H]1CC[C@H](Nc2ncc3ccccc3n2)CC1` [Formula 147, (2S,4R)-1-((S)-3,3-dimethyl-2-(2-(4-(5-(4-(N-((1R,4R)-4-(quinazolin-2-ylamino)cyclohexyl)acetamido)phenyl)pyridin-2-yl)piperazin-1-yl)acetamido)butanoyl)-4-hydroxy-N—((S)-1-(4-(4-methylthiazol-5-yl)phenyl)ethyl)pyrrolidine-2-carboxamide], in data set [2], the “reversal of CCNK degradation by MG132” value was “can reverse the degradation of CDK12/13 and CCNK”. Further, the “inhibitory effect on the hERG channel” value in data set [3] is recorded as “weak or no inhibitory effect on the hERG channel”. For the same compound, the half-life in data set [4] was 2.58 h. For the same compound, the “reversal of CDK12 degradation by MG132” value in data set [5] is “can reverse the degradation of CDK12/13 and CCNK”. Also, in data set [6], the “reversal of CDK13 degradation by MG132” value was “can reverse the degradation of CDK12/13 and CCNK”. The DC50 was under 100 nM in data set [7] (DC50 classes, cell line not given, read-out: CDK12 degradation Activity); 13 nM in data set [7] (HCT116, colorectal cancer cells, read-out: CDK12 DC50); 17 nM in data set [7] (KASUMI-1, leukemia cells, read-out: CDK12 DC50); 15 nM in data set [7] (MDA-MB-231, breast cancer cells, read-out: CDK12 DC50); under 100 nM in data set [8] (DC50 classes, cell line not given, read-out: CDK13 degradation Activity); 15 nM in data set [8] (HCT116, colorectal cancer cells, read-out: CDK13 DC50). The DC50 came to 10 nM in data set [8] (KASUMI-1, leukemia cells, read-out: CDK13 DC50) and 9 nM in data set [8] (MDA-MB-231, breast cancer cells, read-out: CDK13 DC50).
